Experimental data taken from patent US20250120928A1 (University of Maryland, Baltimore, priority 2021, published 2025).
pIC50: −log10 of the molar value. “Also recorded” adds a separate entry of the source.

How the values were obtained:
[1] = target: T1, HDAC6 (Homo sapiens, UniProt Q9UBN7); assay: Fluorescence-based HDAC activity assay with fluorogenic peptide substrate (Reaction Biology); type: biochemical
T1 construct: purchased Reaction Biology Corporation
T1 sequence (Q9UBN7 1-1215): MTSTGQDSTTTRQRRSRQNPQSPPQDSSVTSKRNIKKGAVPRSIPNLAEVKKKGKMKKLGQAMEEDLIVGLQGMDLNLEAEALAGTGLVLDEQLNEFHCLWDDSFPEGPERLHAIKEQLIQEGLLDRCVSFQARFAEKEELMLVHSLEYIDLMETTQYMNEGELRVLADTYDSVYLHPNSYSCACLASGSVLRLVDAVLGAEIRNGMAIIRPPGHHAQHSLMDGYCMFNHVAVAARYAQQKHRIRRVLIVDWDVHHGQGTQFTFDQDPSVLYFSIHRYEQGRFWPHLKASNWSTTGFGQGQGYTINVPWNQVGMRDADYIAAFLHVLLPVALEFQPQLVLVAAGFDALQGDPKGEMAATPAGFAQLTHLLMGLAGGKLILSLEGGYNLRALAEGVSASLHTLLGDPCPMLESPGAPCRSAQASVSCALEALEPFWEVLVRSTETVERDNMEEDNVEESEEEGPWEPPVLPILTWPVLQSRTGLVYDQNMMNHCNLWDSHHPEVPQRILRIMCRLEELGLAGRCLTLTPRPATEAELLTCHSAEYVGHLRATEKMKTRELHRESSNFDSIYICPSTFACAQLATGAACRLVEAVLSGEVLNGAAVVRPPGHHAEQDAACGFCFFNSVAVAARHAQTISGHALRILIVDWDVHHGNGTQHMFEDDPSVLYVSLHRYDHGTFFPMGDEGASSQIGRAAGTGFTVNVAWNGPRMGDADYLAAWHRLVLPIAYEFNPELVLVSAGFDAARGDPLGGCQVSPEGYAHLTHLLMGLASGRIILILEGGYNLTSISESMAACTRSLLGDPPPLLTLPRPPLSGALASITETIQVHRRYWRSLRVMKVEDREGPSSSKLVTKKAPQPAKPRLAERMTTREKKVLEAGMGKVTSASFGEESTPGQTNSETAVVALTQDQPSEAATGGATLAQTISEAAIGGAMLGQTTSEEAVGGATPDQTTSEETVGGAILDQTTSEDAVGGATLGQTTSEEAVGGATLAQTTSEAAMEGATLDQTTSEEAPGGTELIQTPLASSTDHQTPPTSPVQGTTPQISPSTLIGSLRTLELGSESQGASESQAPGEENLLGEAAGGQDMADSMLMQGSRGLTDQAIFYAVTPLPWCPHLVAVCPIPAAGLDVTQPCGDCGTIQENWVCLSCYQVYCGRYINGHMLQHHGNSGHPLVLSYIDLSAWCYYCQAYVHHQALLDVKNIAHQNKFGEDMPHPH
Method: Fluorescence-based activity assays using fluorogenic peptides as substrates for HDAC1, 2, 3, 6, and 8 were performed by Reaction Biology Corporation (reactionbiology.com). […] The substrate for HDACs 1, 2, 3, and 6 was a fluorogenic peptide from p53 residues 379-382 (RHKK(Ac)AMC) (SEQ ID NO: 1). The substrate for HDAC8 was a fluorogenic peptide from p53 residues 379-382 (RHK(Ac)K(Ac)AMC) (SEQ ID NO: 2). SAHA-OH IC50 values were calculated using GraphPad Prism 4 program based on a sigmoidal dose-response equation. The blank (DMSO) value was entered as 1.00×10^−12 of concentration for curve fitting.

[2] = system: T cells (CD3+) from splenocytes; assay: Splenocyte apoptosis and cell death by AV/PI flow cytometry, T cells; type: cell-based; conditions: concentrations up to 30 μM
[3] = system: LPS-induced endotoxemia mouse model; assay: Plasma cytokine analysis in the LPS-induced endotoxemia mouse model; type: in vivo, male C57BL/6J mice; conditions: 50 mg/kg i.p. 3 hours before 20 mg/kg LPS i.p.; blood 3 hours post-LPS
Method: Terminal cardiac blood draws from the left ventricle occurred 3 hours post LPS injections using a 25 g needle and 1 mL syringe into an EDTA coated lavender blood collection tube (BD Medical, Franklin Lakes, NJ). Blood samples were centrifuged at 1000×g for 10 minutes within 30 minutes of collection. Plasma was extracted and diluted 10,000-fold for ELISA IL-6 measurement and diluted 10-fold for TNFα measurements.
Terminal cardiac blood draws from the left ventricle occurred 3 hours post LPS injections using a 25 g needle and 1 mL syringe into an EDTA coated lavender blood collection tubes (BD Medical, Franklin Lakes, NJ). Blood samples were centrifuged at 1000×g for 10 minutes within 30 minutes of collection. Plasma was extracted and diluted 10,000-fold for ELISA IL-6 measurement and diluted 10-fold for TNFα measurements. MAGPIX Luminex bead-based multiplex ELISA (Thermo Fisher Scientific, Waltham, MA) of mouse plasma (diluted 100-fold) measured for 26 various cytokines and chemokines and data was analyzed using the Luminex xPONENT software (Millipore) as per manufacturer's instructions. The 26-plex panel include murine IL-1β, IL-2, IL-4, IL-5, IL-6, IL-9, IL-10, IL-12p70, IL-13, IL-17A (CTLA-8), IL-18, IL-22, IL-23, IL-27, GM-CSF, IFNγ, TNFα, MCP-1 (CCL2), MIP-1α (CCL3), MIP-10 (CCL4), RANTES (CCL5), MCP-3 (CCL7), Eotaxin (CCL11), GROα (CXCL1), MIP-2a (CXCL2), and IP-10 (CXCL10).

[4] = system: BMMØs; assay: Western blot analysis of acetyl-histone H3 and acetyl-α-tubulin; conditions: 10 μM, unstimulated BMMØs, 4 and 9 hours
Method: Day 8 BMMØs were seeded at 1×10^6 cells/well in sterile 6-well plates incubated at 37° C. and 5% CO2 overnight to allow for cell adherence. […] Cells were lysed with Halt™ Protease Inhibitor Cocktail (Cat #78429) (Thermo Fisher, Waltham MA) in RIPA Buffer (Cat #R0278) (Sigma-Aldrich, St. Louis, MO) and scraped with a cell scraper (VWR, Radnor, PA). Lysates were sonicated with a ⅛^th needle tip using a Cole-Parmer 500-Watt Ultrasonic Homogenizer at 40% amplitude for 10 seconds on ice. Lysates were then centrifuged at 4° C. for 20 minutes at 12,000×g. The supernatant was collected and frozen at −80° C. until ready for western blot analysis. Protein lysates were produced using 50/50 sample to 2×SDS/PAGE sample buffer. Proteins were then separated by SDS/PAGE and immunoblotted using Histone H3 (D1H2) XP, Acetyl-Histone H3 (lys9/Lys14), α-Tubulin (11H10), Acetyl-α-Tubulin (Lys40) (D20G3) XP and β-Actin as primary antibodies. ECL was used for detection.
Day 8 BMMØs were seeded at 1×10^6 cells/well in sterile 6-well plates incubated at 37° C. and 5% CO2 overnight to allow for cell adherence. […] Cells were lysed with Halt™ Protease Inhibitor Cocktail (Cat #78429) (Thermo Fisher, Waltham MA) in RIPA Buffer (Cat #R0278) (Sigma-Aldrich, St. Louis, MO) and scraped with a cell scraper (VWR, Radnor, PA). Lysates were sonicated with a ⅛th needle tip using a Cole-Parmer 500-Watt Ultrasonic Homogenizer at 40% amplitude for 10 seconds on ice. Lysates were then centrifuged at 4° C. for 20 minutes at 12,000×g. The supernatant was collected and frozen at −80° C. until ready for western blot analysis. Protein lysates were produced using 50/50 sample to 2×SDS/PAGE sample buffer. Proteins were then separated by SDS/PAGE and immunoblotted using Histone H3 (D1H2) XP, Acetyl-Histone H3 (Lys9/Lys14), α-Tubulin (11H10), Acetyl-α-Tubulin (Lys40) (D20G3) XP and β-Actin as primary antibodies. ECL was used for detection.

less selective HDAC6 inhibition compared to Tubastatin A ([1]; 23 nM compared to […] nM): 1.5 fold
pIC50 ([1]; read-out: IC50 against HDAC6): 7.64
Compound: O=C(CCCCCCC(=O)Nc1ccc(CO)cc1)NO [SAHA-OH, N^1-hydroxy-N^8-(4-(hydroxymethyl)phenyl)octanediamide]
toxicity for the T cell population [2]: minimal toxicity
reduction of plasma IL-6 [3]: about 50%
reduction of plasma TNFα [3]: about 50%
acetylation of histone H3 [4]: slight decrease in histone H3 acetylation compared to SAHA; also recorded: reduced Ac—H3 activity compared to SAHA
acetylation of α-tubulin [4]: similarly resulted in the acetylation; also recorded: similar
